Measured values taken from US20080280891A1, “Anti-cancer agents and uses thereof” (Locus Pharmaceuticals, Inc., priority 2006, published 2008).

Assays:
Assay type in all cases: cell-based
Hela cells = experiment: Cell viability assay (WST-1), Hela cells; settings: WST-1, 48-72 hrs, 0.5% fetal calf serum
Procedure: Jurkat and Hela cells were cultured in RPMI and EMEM media, respectively, containing 0.5% fetal calf serum. Cells were plated in a volume of 100 μL in a 96 well format. Test compounds were included in the culture media at concentrations ranging from 1 nM to 10 μM for a period of 48-72 hrs. Cell viability was determined using the WST-1 calorimetric mitochondrial reduction assay. Briefly, 10 μL of WST-1 reagent was included in the culture well for a period of 1 to 4 hrs. The WST-1 reaction was read on a multiwell spectrophotometer as the difference in the absorbance between 450 nm and 600 nm (baseline). Absorbance was proportional to the number of living cells in the culture well. Concentration response curves and IC50 values were calculated using GraphPAD Prism graphing and curve fitting program.

[1] = test system: Jurkat T-cell leukemic cells; experiment: Cell cycle assay (Example 163), G2/M block in Jurkat cells; settings: 24 h, flow cytometry (PI), Table 2; for activation at 0.1 µM: Homo sapiens, Jurkat
Procedure: (§1) MCF-7 breast cancer cells and Jurkat T-cell leukemic cells were grown (and maintained) in EMEM and RPMI media, respectively, containing 10% fetal calf serum.
Test agents were added a concentration of 0.1 μM. Twenty-fours after test agent addition, cells were analyzed for cell cycle status as described below.
(§2) Cell cycle status was analyzed by flow cytometry. Briefly, cells were collected and washed with FACs buffer (Pharmingen) and resuspended and fixed in 1 mL of 80% ethanol for 1 hr. Cells were washed with FACs buffer and resuspended in propidium iodide(PI)/RNase staining buffer (Pharmingen). PI is a fluorescent dye that labels nucleic acids such as DNA. The fluorescence within a cell (in the presence of PI) is proportional to the amount of DNA within a cell. The cell content of DNA is an indices of status in the cell cycle. […] Cells in the S phase have DNA content that lies between these extremes.
(§3) For testing of cell cycle effects of test agents the percentage of cells within the G1 and G2/M phase were measured.

[2] = test system: MCF-7 breast cancer cells; experiment: Cell cycle assay (Example 163), G2/M block in MCF-7 cells; settings: flow cytometry (PI), Table 2; for activation at 1 µM: Homo sapiens, MCF7, 24 h
Procedure: as §1
(§4) Cells were allowed to adhere for 24 hrs. After adherence, cell culture media was changed to that containing 0.5% FCS. Thirty minutes post-media change, test compounds were added at a concentration of 1 μM. Twenty-fours after test agent addition, cells were analyzed for cell cycle status as described below.
as §2, §3

[3] = test system: NCI-H522 non small cell lung cancer cells; experiment: Cell cycle assay (Example 164), G2/M block in NCI-H522 cells; settings: Homo sapiens, 0.1 μM, 24 h, flow cytometry (PI)
Procedure: (§5) The adherent MCF-7 breast cancer cells and NCI-H522 non small cell lung cancer cells were grown and maintained in EMEM cell culture media containing 10% fetal calf serum.
as §4, with “either 1.0 or 0.1 μM (as specified in the Tables). Twenty-four hours” for “1 μM. Twenty-fours”
as §2, with “indicator” for “indices”
as §3

[4] = test system: MCF-7 breast cancer cells; experiment: Cell cycle assay (Example 164), G2/M block in MCF-7 cells; settings: 24 h, flow cytometry (PI); for MCF-7 G2/M Block 1 μM: Table 3; for activation at 0.1 µM: Homo sapiens, MCF7, Table 4
Procedure: as §5
as §4, with “either 1.0 or 0.1 μM (as specified in the Tables). Twenty-four hours” for “1 μM. Twenty-fours”
as §2, with “indicator” for “indices”
as §3

Row | SMILES | IC50 (Hela cells; Homo sapiens, HeLa) | activation at 0.1 µM ([3]; Table 4) | activation at 0.1 µM [4] | further results
1 | Oc1cc(Nc2cccnc2)cc(-c2cccc3cccnc23)c1 [3-(Pyridin-3-ylamino)-5-quinolin-8-yl-phenol] | 1000 to 30000 nM | – | – | activation at 0.1 µM [1]: < 50%; activation at 1 µM [2]: < 50%
2 | [O-][n+]1cccc(Nc2cc(O)cc(-c3cccc4[nH]ccc34)c2)c1 [3-(1H-Indol-4-yl)-5-(1-oxy-pyridin-3-ylamino)-phenol] | – | – | – | IC50 (Hela cells): 1 to 999 nM; Jurkat G2/M Block 0.1 μM [1]: Y (Y indicates a 50% or greater increase in the number of cells in the G2/M phase, as compared to control); MCF-7 G2/M Block 1 μM ([2]; 24 h): Y (Y indicates a 50% or greater increase in the number of cells in the G2/M phase, as compared to control)
3 | Oc1cc(Nc2cccnc2)cc(-c2cccc3c2CCC3)c1 [3-Indan-4-yl-5-(pyridin-3-ylamino)-phenol] | 1000 to 30000 nM | – | – | activation at 0.1 µM [1]: < 50%; activation at 1 µM [2]: < 50%
4 | Oc1cc(Nc2ccccn2)cc(-c2cccc3[nH]ccc23)c1 [3-(1H-Indol-4-yl)-5-(pyridin-2-ylamino)-phenol] | 1 to 999 nM | – | – | activation at 0.1 µM [1]: ≥ 50%; activation at 1 µM [2]: < 50%
5 | ON=C(c1cccnc1)c1cc(O)cc(-c2cccc3[nH]ccc23)c1 [[3-Hydroxy-5-(1H-indol-4-yl)-phenyl]-pyridin-3-yl-methanone oxime] | 1000 to 30000 nM | – | – | activation at 0.1 µM [1]: < 50%; activation at 1 µM [2]: < 50%
6 | Oc1cc(Nc2cccnc2)cc(-c2cccc(-c3ccccc3)c2)c1 [5-(Pyridin-3-ylamino)-[1,1′;3′,1″]terphenyl-3-ol] | 1000 to 30000 nM | – | – | –
7 | N#Cc1ccc2c(ccn2-c2cc(O)cc(Nc3cccnc3)c2)c1 [1-[3-Hydroxy-5-(pyridin-3-ylamino)-phenyl]-1H-indole-5-carbonitrile] | 1000 to 30000 nM | – | – | activation at 0.1 µM [1]: ≥ 50%; activation at 1 µM [2]: < 50%
8 | O=C(c1ccc(Cl)nc1)c1cc(O)cc(-c2cccc3[nH]ccc23)c1 [(6-Chloro-pyridin-3-yl)-[3-hydroxy-5-(1H-indol-4-yl)-phenyl]-methanone] | 1 to 999 nM | – | – | activation at 0.1 µM [1]: ≥ 50%; activation at 1 µM [2]: < 50%
9 | CN(C)c1ncccc1Nc1cc(O)cc(-c2cccc3[nH]ccc23)c1 [3-(2-Dimethylamino-pyridin-3-ylamino)-5-(1H-indol-4-yl)-phenol] | – | – | – | activation at 0.1 µM ([3]; Table 3): ≥ 50%; MCF-7 G2/M Block 1 μM [4]: Y (Y indicates a 50% or greater increase in the number of cells in the G2/M phase, as compared to control)
10 | COC(=O)Nc1cc(C(=O)c2ccnc(N3CCOCC3)c2)cc(-c2cccc3[nH]ccc23)c1 [[3-(1H-Indol-4-yl)-5-(2-morpholin-4-yl-pyridine-4-carbonyl)-phenyl]-carbamic acid methyl ester] | – | ≥ 50% | ≥ 50% | –
11 | Nc1ccc(-c2cccc3[nH]ccc23)cc1C(=O)c1cccnc1 [[2-Amino-5-(1H-indol-4-yl)-phenyl]-pyridin-3-yl-methanone] | – | – | – | activation at 0.1 µM ([3]; Table 3): ≥ 50%; MCF-7 G2/M Block 1 μM [4]: Y (Y indicates a 50% or greater increase in the number of cells in the G2/M phase, as compared to control)
12 | Nc1nccc(-c2cc(Br)cc(-c3cccc4[nH]ccc34)c2)n1 [4-[3-Bromo-5-(1H-indol-4-yl)-phenyl]-pyrimidin-2-ylamine] | – | ≥ 50% | ≥ 50% | –
13 | COC(=O)Nc1cc(C(=O)c2cc(C)nc(N3CCOCC3)c2)cc(-c2cccc3[nH]ccc23)c1 [[3-(1H-Indol-4-yl)-5-(2-methyl-6-morpholin-4-yl-pyridine-4-carbonyl)-phenyl]-carbamic acid methyl ester] | – | ≥ 50% | ≥ 50% | –
14 | O=[N+]([O-])c1ccc2ccn(-c3cc(O)cc(Nc4cccnc4)c3)c2c1 [3-(6-Nitro-indol-1-yl)-5-(pyridin-3-ylamino)-phenol] | 1 to 999 nM | – | – | activation at 0.1 µM [1]: ≥ 50%
15 | Oc1cc(-c2cccc3[nH]ccc23)nc(Nc2cccnc2)n1 [6-(1H-Indol-4-yl)-2-(pyridin-3-ylamino)-pyrimidin-4-ol] | 1000 to 30000 nM | – | – | activation at 0.1 µM [1]: ≥ 50%
16 | COC(=O)Nc1cc(Nc2ccc(C#N)nc2)cc(-c2cccc3[nH]ccc23)c1 [[3-(6-Cyano-pyridin-3-ylamino)-5-(1H-indol-4-yl)-phenyl]-carbamic acid methyl ester] | – | – | – | activation at 0.1 µM ([3]; Table 3): < 50%; MCF-7 G2/M Block 1 μM [4]: Y (Y indicates a 50% or greater increase in the number of cells in the G2/M phase, as compared to control)
17 | COC(=O)Nc1cc(C(=O)c2ccnc(C)c2)cc(-c2cccc3[nH]ccc23)c1 [[3-(1H-Indol-4-yl)-5-(2-methyl-pyridine-4-carbonyl)-phenyl]-carbamic acid methyl ester] | – | ≥ 50% | < 50% | –
18 | COC(=O)Nc1cc(C(=O)c2cccnc2)cc(-c2ccc(F)c3[nH]ccc23)c1 [[3-(7-Fluoro-1H-indol-4-yl)-5-(pyridine-3-carbonyl)-phenyl]-carbamic acid methyl ester] | – | ≥ 50% | ≥ 50% | –
19 | CC(=O)Nc1cc(-c2ccc(F)cc2F)cc(-c2cccc3[nH]ccc23)c1 [N-[5-(1H-Indol-4-yl)-2′,4′-difluoro-biphenyl-3-yl]-acetamide] | – | ≥ 50% | ≥ 50% | –
20 | COC(=O)Nc1cc(C(=O)c2cc(C)nc(C)c2)cc(-c2cccc3[nH]ccc23)c1 [[3-(2,6-Dimethyl-pyridine-4-carbonyl)-5-(1H-indol-4-yl)-phenyl]-carbamic acid methyl ester] | – | ≥ 50% | ≥ 50% | –
21 | COc1ccc(-c2cc(NC(C)=O)cc(-c3cccc4[nH]ccc34)c2)cn1 [N-[3-(1H-Indol-4-yl)-5-(6-methoxy-pyridin-3-yl)-phenyl]-acetamide] | – | ≥ 50% | ≥ 50% | –
22 | CS(=O)(=O)Nc1cc(-c2ccc(F)cc2F)cc(-c2cccc3[nH]ccc23)c1 [N-[5-(1H-Indol-4-yl)-2′,4′-difluoro-biphenyl-3-yl]-methanesulfonamide] | – | ≥ 50% | < 50% | –
23 | CS(=O)(=O)Nc1cc(-c2ccc3c(c2)OCO3)cc(-c2cccc3[nH]ccc23)c1 [N-[3-benzo[1,3]dioxol-5-yl-5-(1H-indol-4-yl)-phenyl]-methanesulfonamide] | – | ≥ 50% | ≥ 50% | –
24 | CC(=O)Nc1cc(C(=O)c2ccnc(N(C)C)c2)cc(-c2cccc3[nH]ccc23)c1 [N-[3-(2-Dimethylamino-pyridine-4-carbonyl)-5-(1H-indol-4-yl)-phenyl]-acetamide] | – | ≥ 50% | ≥ 50% | –
25 | CN(C)c1cc(C(=O)c2cc(NS(C)(=O)=O)cc(-c3cccc4[nH]ccc34)c2)ccn1 [N-[3-(2-Dimethylamino-pyridine-4-carbonyl)-5-(1H-indol-4-yl)-phenyl]-methanesulfonamide] | – | ≥ 50% | ≥ 50% | –
26 | N#Cc1ccc(Nc2cc(O)cc(-c3cccc4[nH]ccc34)c2)cc1 [4-[3-Hydroxy-5-(1H-indol-4-yl)-phenylamino]-benzonitrile] | – | – | – | activation at 0.1 µM ([3]; Table 3): ≥ 50%; MCF-7 G2/M Block 1 μM [4]: N (N indicates a less than 50% increase at this dose)
27 | Cc1cc(C(=O)c2cc(NS(C)(=O)=O)cc(-c3cccc4[nH]ccc34)c2)cc(N(C)C)n1 [N-[3-(2-Dimethylamino-6-methyl-pyridine-4-carbonyl)-5-(1H-indol-4-yl)-phenyl]-methanesulfonamide] | – | ≥ 50% | ≥ 50% | –
28 | Oc1cc(Nc2cccnc2)cc(-c2ccc3c(c2)CCC3)c1 [3-Indan-5-yl-5-(pyridin-3-ylamino)-phenol] | 1000 to 30000 nM | – | – | –
